Laboratory results as given in US5686472A, “Inhibitors of farnesyl-protein transferase” (Merck & Co., Inc., priority 1993, dated 1997).

Molecular target: recombinant human farnesyl transferase (Homo sapiens, UniProt P49354+P49356)
Assay: In vitro inhibition of ras farnesyl transferase
Assay type: biochemical
Conditions: concentration of test compound giving 50% inhibition of FTase, Table 1, read-out: IC50 (inhibition of RAS farnesylation)
Description: In vitro inhibition of ras farnesyl transferase
The assay was conducted as described in Pompliano, et. al., Biochemistry 31, 3800 (1992) with the exception of utilizing recombinant human farnesyl transferase in place of the partially purified bovine enzyme described therein.
*(IC50 is the concentration of the test compound which gives 50%
inhibition of FTase under the described assay conditions.

| Compound | IC50 |
| --- | --- |
| C=CC[C@H](OC[C@@H](NC[C@@H](N)CS)[C@@H](C)CC)C(=O)N[C@@H](CCO)C(=O)O | 18 nM |
| CC[C@H](C)[C@@H](CO[C@@H](Cc1ccccc1)C(=O)N[C@@H](CCS(C)(=O)=O)C(=O)O)NC[C@@H](N)CS [2(S)-[2(S)-[2(R)-Amino-3-mercapto]propylamino-3(S)-methyl]-pentyloxy-3-phenylpropionyl-methionine sulfone] | 2.2 nM |
| CCC[C@H](OC[C@@H](NC[C@@H](N)CS)[C@@H](C)CC)C(=O)N[C@@H](CCO)C(=O)O [2(S)-[2(S)-[2(R)-Amino-3-mercapto]propylamino-3(S)-methyl]-pentyloxy-pentanoyl-homoserine] | 7 nM |
| CC[C@H](C)[C@@H](CS(=O)(=O)[C@@](C)(Cc1ccccc1)C(=O)N[C@@H](CCO)C(=O)O)NC[C@@H](N)CS [2(S)-[2(S)-[2(R)-Amino-3-mercapto]propylamino-3(S)-methyl]pentyl-sulfonyl-2-methyl-3-phenylpropionyl-homo-serine] | 980 nM |
| CC[C@H](C)[C@@H](CO[C@@](C)(Cc1ccccc1)C(=O)N[C@@H](CCO)C(=O)O)NC[C@@H](N)CS [2(S)-[2(S)-[2(R)-Amino-3-mercapto]propylamino-3(S)-methyl]pentyloxy-2-methyl-3-phenylpropionyl-homoserine] | 7 nM |
| CC[C@H](C)[C@@H](CO[C@H](C(=O)N[C@@H](CCO)C(=O)O)C(C)C)NC[C@@H](N)CS [2(S)-[2(S)-[2(R)-Amino-3-mercapto]propylamino-3(S)-methyl]pentyloxy-3-methylbutanoyl-homoserine] | 1.4 nM |
| CC[C@H](C)[C@@H](CO[C@H](C(=O)N[C@@H](CCO)C(=O)O)C(C)c1ccccc1)NC[C@@H](N)CS (stereo partly drawn) [2(S)-[2(S)-[2(R)-Amino-3-mercapto]propylamino-3(S)-methyl]pentyloxy-3-phenylbutanoyl-homoserine] | 17 nM |
| CC[C@H](C)[C@@H](CO[C@@H](Cc1ccccc1)C(=O)N[C@@H](CCO)C(=O)O)NC[C@@H](N)CS [2(S)-[2(S)-[2(R)-Amino-3-mercapto]propylamino-3(S)-methyl]pentyloxy-3-phenylpropionyl-homoserine] | 5 nM |
| CC[C@H](C)[C@@H](CO[C@@H](Cc1ccccc1)C(=O)N[C@@H](CCSC)C(=O)O)NC[C@@H](N)CS [2(S)-[2(S)-[2(R)-Amino-3-mercapto]propylamino-3(S)-methyl]pentyloxy-3-phenylpropionyl-methionine] | 4 nM |
| CC[C@H](C)[C@@H](CO[C@@H](CC(C)C)C(=O)N[C@@H](CCO)C(=O)O)NC[C@@H](N)CS [2(S)-[2(S)-[2(R)-Amino-3-mercapto]propylamino-3(S)-methyl]pentyloxy-4-methylpentanoyl-homoserine] | 19 nM |
| CC[C@H](C)[C@@H](CS[C@@](C)(Cc1ccccc1)C(=O)N[C@@H](CCO)C(=O)O)NC[C@@H](N)CS [2(S)-[2(S)-[2(R)-Amino-3-mercapto]propylamino-3(S)-methyl]pentylthio-2-methyl-3-phenylpropionyl-homoserine] | 240 nM |

Tested on: RAS farnesylation in the v-ras cell line
Assay: In vivo ras farnesylation assay (inhibition of RAS farnesylation in the v-ras cell line)
Assay type: cell-based
Conditions: 4 h at 37° C. before labelling, additional 20 h, Table 2
Description: In vivo ras farnesylation assay
The cell line used in this assay was the v-ras line, which expressed viral Ha-ms p21. The assay was performed essentially as described in DeClue, J. E. et. al., Cancer Research 51, 712-717, (1991). Cells in 10 cm dishes at 50-75% confluency were treated with the test compound (final concentration of solvent, methanol or dimethyl sulfoxide, was 0.1%). After 4 hours at 37° C., the cells were labelled in 3 ml methionine-free DMEM supplemented with 10% regular DMEM, 2% fetal bovine serum and 400 μCi[^35 S]methionine (1000 Ci/mmol). After an additional 20 hours, the cells were lysed in 1 ml lysis buffer (1% NP40/20 mM HEPES, pH 7.5/5 mM Mg/Cl2 /1mM DTT/10 μg/ml aprotinen/2 μg/ml leupeptin/2 μg/ml antipain/0.5 mM PMSF) and the lysates cleared by centrifugation at 100,000×g for 45 minutes. Aliquots of lysates containing equal numbers of acid-precipitable counts were bought to 1 ml with IP buffer (lysis buffer lacking DTT) and immunoprecipitated with the ras-specific monoclonal antibody Y13-259 (Furth, M. E. et. al., J. Virol. 43, 294-304, (1982)). Following a 2 hour antibody incubation at 4° C., 200 μl of a 25% suspension of protein A-Sepharose coated with rabbit anti rat IgG was added for 45 minutes. The immunoprecipitates were washed four times with IP was buffer ([…] HEPES, pH 7.5/1 mN EDTA/1% Triton X-100.0.5% deoxycholate/0.1%/SDS.0.1M NaCl) boiled in SDS-Page sample buffer and loaded on 13% acrylamide gels. When the dye front reached the bottom, the gel was fixed, soaked in Enlightening, dried and autoradiographed. The intensities of the bands corresponding to farnesylated and nonfarnesylated ras proteins were compared to determine the percent inhibition of farnesyl transfer to protein.

| Compound | IC50 |
| --- | --- |
| CC[C@H](C)[C@@H](CO[C@@H](Cc1ccccc1)C(=O)N[C@@H](CCS(C)(=O)=O)C(=O)OC(C)C)NC[C@@H](N)CS [2(S)-[2(S)-[2(R)-Amino-3-mercapto]-propylamino-3(S)-methyl]pentyloxy-3-phenylpropionyl-methionine sulfone isopropyl ester] | 100 nM |
| C=CC[C@H](OC[C@@H](NC[C@@H](N)CS)[C@@H](C)CC)C(=O)N[C@H]1CCOC1=O [2(S)-[2(S)-[2(R)-Amino-3-mercapto]propylamino-3(S)-methyl]-pentyloxy-4-pentenoyl-homoserine lactone] | 10000 nM |
| CC[C@H](C)[C@@H](CO[C@@H](CC(C)C)C(=O)N[C@H]1CCOC1=O)NC[C@@H](N)CS [2(S)-[2(S)-[2(R)-Amino-3-mercapto]propylamino-3(S)-methyl]pentyloxy4-methylpentanoyl-homoserine lactone] | 10000 nM |
| CC[C@H](C)[C@@H](CO[C@@](C)(Cc1ccccc1)C(=O)N[C@H]1CCOC1=O)NC[C@@H](N)CS [2(S)-[2(S)-[2(R)-Amino-3-mercapto]propylamino-3(S)-methyl]pentyloxy-2-methyl-3-phenylpropionyl-homoserine lactone] | 50000 nM |
| CC[C@H](C)[C@@H](CO[C@@H](Cc1ccccc1)C(=O)N[C@H]1CCOC1=O)NC[C@@H](N)CS [2(S)-[2(S)-[2(R)-Amino-3-mercapto]propylamino-3(S)-methyl]pentyloxy-3-phenylpropionyl-homoserine lactone] | 2500 nM |
| CC[C@H](C)[C@@H](CO[C@@H](Cc1ccccc1)C(=O)N[C@@H](CCSC)C(=O)OC)NC[C@@H](N)CS [2(S)-[2(S)-[2(R)-Amino-3-mercapto]propylamino-3(S)-methyl]pentyloxy-3-phenylpropionyl-methionine methyl ester] | 100 nM |
| CC[C@H](C)[C@@H](CO[C@@H](Cc1ccccc1)C(=O)N[C@@H](CCS(C)(=O)=O)C(=O)OC)NC[C@@H](N)CS [2(S)-[2(S)-[2(R)-Amino-3-mercapto]propylamino-3(S)-methyl]pentyloxy-3-phenylpropionyl-methionine sulfone methyl ester] | 100 nM |
| CCC[C@H](OC[C@@H](NC[C@@H](N)CS)[C@@H](C)CC)C(=O)N[C@H]1CCOC1=O [2(S)-[2(S)-[2(R)-Amino-3-mercapto]propylamino-3(S)-methyl]pentyloxy-pentanoyl-homoserine lactone] | 10000 nM |

Tested on: not listed separately
Assay: Observation on the isolated TFA salt (hygroscopicity, stability in solution)
Assay type: physicochemical
Conditions: not given

| Compound | hygroscopicity |
| --- | --- |
| CC[C@H](C)[C@@H](CO[C@@H](Cc1ccccc1)C(=O)N[C@H]1CCOC1=O)NC[C@@H](N)CS [2(S)-[2(S)-[2(R)-Amino-3-mercapto]propylamino-3(S)-methyl]pentyloxy-3-phenylpropionyl-homoserine lactone] | hygroscopic |

Same assay, conditions: left in solution and exposed to air

| Compound | stability (disulphide formation) |
| --- | --- |
| CC[C@H](C)[C@@H](CO[C@@H](Cc1ccccc1)C(=O)N[C@H]1CCOC1=O)NC[C@@H](N)CS [2(S)-[2(S)-[2(R)-Amino-3-mercapto]propylamino-3(S)-methyl]pentyloxy-3-phenylpropionyl-homoserine lactone] | prone to disulphide formation if left in solution and exposed to air |
